ChEMBL document CHEMBL1201862, “PubChem BioAssay data set” (2004)
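Where inhibition never reached the appropriate level, the endpoint shown equals the highest concentration tested. Otherwise, values were interpolated linearly from a five-concentration, 48-hour dose response in 96-well plates. Abbreviation: GI50, concentration required for 50% inhibition of growth.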 The source made the active and inactive calls. Cut-off read from the data, not from the text of the source: active = GI50 up to about 1.1 µM and inactive = higher.

Key:
Test in all cases: NCI tumour cell line growth inhibition, 48 h
786-0 = test system: 786-0
TK-10 = test system: TK-10
SW-620 = test system: SW-620
HOP-62 = test system: HOP-62
SN12C = test system: SN12C
HCT-15 = test system: HCT-15
HT-29 = test system: HT-29
K562 = test system: K562
LOX IMVI = test system: LOX IMVI
CCRF-CEM = test system: CCRF-CEM
OVCAR-3 = test system: OVCAR-3
MDA-MB-435 = test system: MDA-MB-435
NCI-H460 = test system: NCI-H460
SF-295 = test system: SF-295
OVCAR-8 = test system: OVCAR-8
PC-3 = test system: PC-3
UACC-257 = test system: UACC-257
SF-539 = test system: SF-539
SK-OV-3 = test system: SK-OV-3
SR = test system: SR
HL-60 = test system: HL-60
NCI-H226 = test system: NCI-H226
DU-145 = test system: DU-145
MCF7 = test system: MCF7
NCI/ADR-RES = test system: NCI/ADR-RES
A498 = test system: A498
SNB-19 = test system: SNB-19
SK-MEL-5 = test system: SK-MEL-5
Hs-578T = test system: Hs-578T
ACHN = test system: ACHN
RPMI-8226 = test system: RPMI-8226
NCI-H522 = test system: NCI-H522
UO-31 = test system: UO-31
A549 = test system: A549
U-251 = test system: U-251
SK-MEL-2 = test system: SK-MEL-2
KM12 = test system: KM12
NCI-H23 = test system: NCI-H23
HCT-116 = test system: HCT-116
M14 = test system: M14
MOLT-4 = test system: MOLT-4
SF-268 = test system: SF-268
MDA-N = test system: MDA-N
UACC-62 = test system: UACC-62
CAKI-1 = test system: CAKI-1
RXF 393 = test system: RXF 393
IGROV-1 = test system: IGROV-1
MDA-MB-231 = test system: MDA-MB-231
OVCAR-5 = test system: OVCAR-5
T47D = test system: T47D
COLO 205 = test system: COLO 205
HCC 2998 = test system: HCC 2998
SNB-75 = test system: SNB-75
SK-MEL-28 = test system: SK-MEL-28
OVCAR-4 = test system: OVCAR-4
HOP-92 = test system: HOP-92

SMILES: COc1ccc(C2C=C(c3ccccc3)Nc3nnnn32)cc1 (centres undefined)
- GI50 (786-0): 27.5 µM (inactive)
- GI50 (TK-10): 6.27 µM (inactive)
- GI50 (SW-620): 37.3 µM (inactive)
- GI50 (HOP-62): 25.5 µM (inactive)
- GI50 (SN12C): > 100 µM (inactive)
- GI50 (HCT-15): 31 µM
- GI50 (HT-29): 18.1 µM (inactive)
- GI50 (K562): 50.6 µM (inactive)
- GI50 (LOX IMVI): 41.7 µM (inactive)
- GI50 (CCRF-CEM): > 100 µM (inactive)
- GI50 (OVCAR-3): 24.9 µM (inactive)
- GI50 (MDA-MB-435): 76.6 µM (inactive)
- GI50 (NCI-H460): 45 µM (inactive)
- GI50 (SF-295): 31 µM (inactive)
- GI50 (OVCAR-8): 47.4 µM (inactive)
- GI50 (PC-3): 49 µM (inactive)
- GI50 (UACC-257): 98.4 µM (inactive)
- GI50 (SF-539): 23.7 µM (inactive)
- GI50 (SK-OV-3): 31.7 µM (inactive)
- GI50 (SR): 26.4 µM (inactive)
- GI50 (HL-60): > 100 µM (inactive)
- GI50 (NCI-H226): 64 µM (inactive)
- GI50 (DU-145): 28.4 µM (inactive)
- GI50 (MCF7): 20.2 µM (inactive)
- GI50 (NCI/ADR-RES): > 100 µM (inactive)
- GI50 (A498): 34.4 µM (inactive)
- GI50 (SNB-19): 97.9 µM (inactive)
- GI50 (SK-MEL-5): 34.4 µM (inactive)
- GI50 (Hs-578T): 40.6 µM (inactive)
- GI50 (ACHN): 24.1 µM (inactive)
- GI50 (RPMI-8226): 51.9 µM (inactive)
- GI50 (NCI-H522): 17.9 µM (inactive)
- GI50 (UO-31): 90.8 µM (inactive)
- GI50 (A549): 41.3 µM (inactive)
- GI50 (U-251): 19.7 µM (inactive)
- GI50 (SK-MEL-2): 38.7 µM (inactive)
- GI50 (KM12): 15.8 µM (inactive)
- GI50 (NCI-H23): > 100 µM (inactive)
- GI50 (HCT-116): 13.5 µM (inactive)
- GI50 (M14): 68.2 µM (inactive)
- GI50 (MOLT-4): > 100 µM (inactive)
- GI50 (SF-268): 44.9 µM (inactive)
- GI50 (MDA-N): 45.1 µM (inactive)
- GI50 (UACC-62): 50.4 µM (inactive)
- GI50 (CAKI-1): 54 µM (inactive)
- GI50 (RXF 393): 20.3 µM (inactive)
- GI50 (IGROV-1): 82.8 µM (inactive)
- GI50 (MDA-MB-231): 26.6 µM (inactive)
- GI50 (OVCAR-5): 37.7 µM (inactive)
- GI50 (T47D): 19 µM (inactive)
- GI50 (COLO 205): > 100 µM (inactive)

SMILES: CSCCC(NC(=O)OCc1ccccc1)NC(=O)OCc1ccccc1
- GI50 (TK-10): > 100 µM (inactive)
- GI50 (SW-620): > 100 µM (inactive)
- GI50 (HOP-62): > 100 µM (inactive)
- GI50 (SN12C): > 100 µM (inactive)
- GI50 (HCT-15): > 100 µM
- GI50 (HT-29): > 100 µM (inactive)
- GI50 (K562): > 100 µM (inactive)
- GI50 (LOX IMVI): > 100 µM (inactive)
- GI50 (CCRF-CEM): > 10 µM (inactive)
- GI50 (OVCAR-3): > 100 µM (inactive)
- GI50 (MDA-MB-435): > 100 µM (inactive)
- GI50 (NCI-H460): > 100 µM (inactive)
- GI50 (HCC 2998): > 100 µM (inactive)
- GI50 (SNB-75): > 100 µM (inactive)
- GI50 (SF-295): > 100 µM (inactive)
- GI50 (OVCAR-8): > 100 µM (inactive)
- GI50 (PC-3): > 100 µM (inactive)
- GI50 (UACC-257): > 100 µM (inactive)
- GI50 (SK-OV-3): > 100 µM (inactive)
- GI50 (SR): > 100 µM (inactive)
- GI50 (HL-60): > 10 µM (inactive)
- GI50 (NCI-H226): > 100 µM (inactive)
- GI50 (DU-145): > 100 µM (inactive)
- GI50 (SK-MEL-28): > 100 µM (inactive)
- GI50 (NCI/ADR-RES): > 100 µM (inactive)
- GI50 (SNB-19): > 100 µM (inactive)
- GI50 (SK-MEL-5): > 100 µM (inactive)
- GI50 (Hs-578T): > 100 µM (inactive)
- GI50 (ACHN): > 100 µM (inactive)
- GI50 (RPMI-8226): > 100 µM (inactive)
- GI50 (NCI-H522): > 100 µM (inactive)
- GI50 (UO-31): > 100 µM (inactive)
- GI50 (A549): > 100 µM (inactive)
- GI50 (U-251): > 100 µM (inactive)
- GI50 (SK-MEL-2): > 100 µM (inactive)
- GI50 (OVCAR-4): > 100 µM (inactive)
- GI50 (NCI-H23): > 100 µM (inactive)
- GI50 (HCT-116): > 100 µM (inactive)
- GI50 (M14): > 100 µM (inactive)
- GI50 (MOLT-4): > 100 µM (inactive)
- GI50 (HOP-92): > 100 µM (inactive)
- GI50 (MDA-N): > 100 µM (inactive)
- GI50 (CAKI-1): > 100 µM (inactive)
- GI50 (IGROV-1): > 100 µM (inactive)
- GI50 (MDA-MB-231): > 100 µM (inactive)
- GI50 (OVCAR-5): > 100 µM (inactive)
- GI50 (T47D): 59.8 µM (inactive)
- GI50 (COLO 205): > 100 µM (inactive)
